Assay [1] has as its system Aspergillus fumigatus TIMM0063. Put plainly: In vitro anti-Aspergillus activity test. The format is cell-based. As to conditions: 80% or more inhibition, unit inferred. The procedure: Aspergillus fumigatus TIMM0063 was used as the strain. The test fungi were cultured on a Potato dextrose agar slant medium at 35° C. for 4 days, and then sterilized saline containing 0.1% (v/v) Tween 80 was added to release the conidia. This conidial suspension was filtered through sterile gauze, and the number of conidia was counted using a hemocytometer. The same solution was adjusted to a conidial concentration of 1×10^6 conidia/mL, and this was used as an inoculum. Each compound was dissolved in dimethyl sulfoxide to a predetermined concentration, and diluted 50-fold with 0.165 M MOPS buffered RPMI 1640 liquid medium, and each diluted solution was dispensed into a 96-well microplate by each 100 μL. The inoculum was diluted 50-fold with 0.165 M MOPS buffered RPMI 1640 liquid medium containing 20% alamar Blue™, and the diluted solution was inoculated into the 96-well microplate containing the compound by each 100 μL (final inoculum amount 1.0×10^4 conidia/mL). After static culture at 35° C. for 48 hr, the degree of color development of the alamar Blue™ was measured using a microplate reader (O.D. 570-595 nm), and the minimum concentration showing 80% or more inhibition was defined as the minimum inhibitory concentration (MIC).

The subject of assay [2] is Candida albicans NBRC1270. Put plainly: In vitro anti-Candida activity test. The format is cell-based. Conditions: 80% or more inhibition, unit inferred. The procedure: Candida albicans NBRC1270 was used as the strain. The test fungi were cultured on a Sabouraud dextrose agar slant medium at 35° C. for 24 hr, and then suspended in sterilized saline. The number of cells in this suspension was counted using a hemocytometer, and the same suspension was adjusted to a cell concentration of 1.5×10^5 cells/mL, and this was used as an inoculum. Each compound was dissolved in dimethyl sulfoxide to a predetermined concentration, and diluted 50-fold with 0.165 M MOPS buffered RPMI 1640 liquid medium, and each diluted solution was dispensed into a 96-well microplate by each 100 μL. The inoculum was diluted 50-fold with 0.165 M MOPS buffered RPMI 1640 liquid medium containing 20% alamar Blue™, and the diluted solution was inoculated into the 96-well microplate containing the compound by each 100 μL (final inoculum amount 1.5×10^3 cells/mL). After static culture at 35° C. for 24 hr, the degree of color development of the alamar Blue™ was measured using a microplate reader (O.D. 570-595 nm), and the minimum concentration showing 80% or more inhibition was defined as the minimum inhibitory concentration (MIC).

In assay [1] (Table 23, 35° C. for 48 hr), `N#C/C(=C1/SCC(c2ncc(NC(=O)OCc3ncc(F)cc3F)cc2Cl)S1)n1cncn1` (racemic) [compound 75] gave an A. fumigatus (MIC) of 10 ng/mL. For the same compound, in assay [2] (Table 23, 35° C. for 24 hr), the C. albicans (MIC) came to 10 ng/mL.
In turn, `CC(C)COC(=O)Nc1cnc(C2CS/C(=C(/C#N)n3cncn3)S2)c(Cl)c1` (racemic) [compound 83] registered an A. fumigatus (MIC) in assay [1] (Table 23, 35° C. for 48 hr) of 10 ng/mL. This compound also gave a C. albicans (MIC) in assay [2] (Table 23, 35° C. for 24 hr) of 5 ng/mL.
`CCCOC(=O)Nc1cnc(C2CS/C(=C(/C#N)n3cncn3)S2)c(Cl)c1` (racemic) [compound 84]: the A. fumigatus (MIC) in assay [1] (Table 23, 35° C. for 48 hr) is 5 ng/mL. Besides, the C. albicans (MIC) in assay [2] (Table 23, 35° C. for 24 hr) is 5 ng/mL.
`N#C/C(=C1/SCC(c2ncc(NC(=O)OCC3CC3)cc2Cl)S1)n1cncn1` (racemic) [compound 87] came in with an A. fumigatus (MIC) in assay [1] (Table 23, 35° C. for 48 hr) of 5 ng/mL. This compound also came in with a C. albicans (MIC) in assay [2] (Table 23, 35° C. for 24 hr) of 1.25 ng/mL.
In assay [1] (Table 23, 35° C. for 48 hr), `N#C/C(=C1/SCC(c2ncc(NC(=O)OCc3ccc(F)cc3)cc2Cl)S1)n1cncn1` (racemic) [compound 89] showed an A. fumigatus (MIC) of 10 ng/mL. This compound yielded a C. albicans (MIC) in assay [2] (Table 23, 35° C. for 24 hr) of 2.5 ng/mL.
For `N#C/C(=C1/SCC(c2ncc(NC(=O)OCC3CC3(F)F)cc2Cl)S1)n1cncn1` (racemic) [compound 96] the same measures were 10 ng/mL and 5 ng/mL.
In assay [1] (Table 23, 35° C. for 48 hr), `N#C/C(=C1/SCC(c2ncc(NC(=O)OCC3CCC3)cc2Cl)S1)n1cncn1` (racemic) [compound 97] displayed an A. fumigatus (MIC) of 10 ng/mL. The compound also registered a C. albicans (MIC) in assay [2] (Table 23, 35° C. for 24 hr) of 2.5 ng/mL.
In assay [1] (Table 23, 35° C. for 48 hr), `N#C/C(=C1/SCC(c2ncc(NC(=O)OCc3cccc(F)c3)cc2Cl)S1)n1cncn1` (racemic) [compound 98] had an A. fumigatus (MIC) of 5 ng/mL. The compound further displayed a C. albicans (MIC) in assay [2] (Table 23, 35° C. for 24 hr) of 2.5 ng/mL.
The compound `N#C/C(=C1/SCC(c2ncc(NC(=O)OCc3ccccc3F)cc2Cl)S1)n1cncn1` (racemic) [compound 99] displayed an A. fumigatus (MIC) in assay [1] (Table 23, 35° C. for 48 hr) of 5 ng/mL. In addition, the C. albicans (MIC) in assay [2] (Table 23, 35° C. for 24 hr) was found to be 2.5 ng/mL.
For `N#C/C(=C1/SCC(c2ncc(NC(=O)OCC3CC3)cc2F)S1)n1cncn1` (racemic) [compound 103] the same measures were 10 ng/mL and 5 ng/mL.
`N#C/C(=C1/SCC(c2ncc(NC(=O)OCC3CC(F)(F)C3)cc2Cl)S1)n1cncn1` (racemic) [compound 107] yielded an A. fumigatus (MIC) in assay [1] (Table 23, 35° C. for 48 hr) of 10 ng/mL. Further, in assay [2] (Table 23, 35° C. for 24 hr), the C. albicans (MIC) was found to be 5 ng/mL.
`N#C/C(=C1/SCC(c2ncc(NC(=O)OCc3ccncc3F)cc2Cl)S1)n1cncn1` (racemic) [compound 114] registered an A. fumigatus (MIC) in assay [1] (Table 24, 35° C. for 48 hr) of 10 ng/mL. This compound came in with a C. albicans (MIC) in assay [2] (Table 24, 35° C. for 24 hr) of 10 ng/mL.
As for `N#C/C(=C1/SCC(c2ncc(NC(=O)OCc3ccnc(F)c3)cc2Cl)S1)n1cncn1` (racemic) [compound 115], in assay [1] (Table 24, 35° C. for 48 hr), the A. fumigatus (MIC) came out at 10 ng/mL. Also, in assay [2] (Table 24, 35° C. for 24 hr), the C. albicans (MIC) worked out at 5 ng/mL.
Regarding `CC1CC1COC(=O)Nc1cnc(C2CS/C(=C(/C#N)n3cncn3)S2)c(Cl)c1` (racemic) [compound 118], the A. fumigatus (MIC) in assay [1] (Table 24, 35° C. for 48 hr) came to 5 ng/mL. The C. albicans (MIC) in assay [2] (Table 24, 35° C. for 24 hr) came to 1.25 ng/mL.
`N#C/C(=C1/SCC(c2ncc(NC(=O)OCC3CC3(F)F)cc2F)S1)n1cncn1` (racemic) [compound 128] displayed an A. fumigatus (MIC) in assay [1] (Table 24, 35° C. for 48 hr) of 10 ng/mL. In addition, the C. albicans (MIC) in assay [2] (Table 24, 35° C. for 24 hr) came out at 10 ng/mL.
`N#CC(=C1SCC(c2ncc(C=NOCC3CC3)cc2Cl)S1)n1cncn1` (racemic) [compound 139]: the A. fumigatus (MIC) in assay [1] (Table 24, 35° C. for 48 hr) came out at 2.5 ng/mL. Also, in assay [2] (Table 24, 35° C. for 24 hr), the C. albicans (MIC) was 1.25 ng/mL.
Take `N#CC(=C1SCC(c2ncc(C=NOCC3CC3)cc2F)S1)n1cncn1` (racemic) [compound 140]: the A. fumigatus (MIC) in assay [1] (Table 24, 35° C. for 48 hr) came to 2.5 ng/mL. This compound also gave a C. albicans (MIC) in assay [2] (Table 24, 35° C. for 24 hr) of 2.5 ng/mL.
The compound `CCCON=Cc1cnc(C2CSC(=C(C#N)n3cncn3)S2)c(Cl)c1` (racemic) [compound 141] gave an A. fumigatus (MIC) in assay [1] (Table 24, 35° C. for 48 hr) of 2.5 ng/mL. The C. albicans (MIC) in assay [2] (Table 24, 35° C. for 24 hr) turned out to be 2.5 ng/mL.

Source of the values: patent publication US20250197384A1, “AZOLE COMPOUND AND ANTIFUNGAL AGENT” (NIHON NOHYAKU CO., LTD., priority 2022, published 2025).
